According to patent publication US12060349B2, “Glucosylceramide synthase inhibitors” (Genzyme Corporation, priority 2012, dated 2024):

Experiments:
[1] = biological target: T1, glucosylceramide synthase (Homo sapiens, UniProt Q16739); assay: microsomal assay measuring conversion of ceramide to glucosylceramide by HPLC (GCS IC50); type: biochemical; details: concentration causing 50% inhibition of glucosylceramide synthase activity
T1 construct: Microsomes were isolated from A375 human melanoma cells; endogenous in cells; host or cells: A375 human melanoma cells (microsomal fraction, 100,000 g pellet)
T1 sequence (Q16739 1-394): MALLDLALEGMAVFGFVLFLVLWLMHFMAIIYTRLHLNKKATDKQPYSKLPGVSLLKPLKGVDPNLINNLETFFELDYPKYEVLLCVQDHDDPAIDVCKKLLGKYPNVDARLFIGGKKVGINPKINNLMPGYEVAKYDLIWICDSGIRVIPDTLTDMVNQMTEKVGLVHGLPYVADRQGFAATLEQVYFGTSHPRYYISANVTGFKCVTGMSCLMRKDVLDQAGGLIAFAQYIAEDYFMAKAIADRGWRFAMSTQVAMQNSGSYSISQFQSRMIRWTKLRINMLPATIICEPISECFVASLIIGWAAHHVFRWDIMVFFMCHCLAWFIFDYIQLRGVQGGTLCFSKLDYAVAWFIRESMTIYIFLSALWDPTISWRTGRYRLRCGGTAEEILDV
Method in brief: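 IC50 is the compound concentration halving glucosylceramide synthase activity. Activity was measured in microsomes, with HPLC quantifying glucosylceramide formed from ceramide.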

[2] = tested on: GM3 expression on the cell surface, B16 mouse melanoma cells; assay: cell based phenotypic assay, cell surface GM3 by antibody mediated immunofluorescence, B16 (GM3 B16 IC50); details: Mus musculus, B16 mouse melanoma cells; 50% inhibition of GM3 expression on the cell surface; read-out: GM3 B16 IC50
Method in brief: (§1)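 Two melanoma lines, mouse B16 and human C32, were treated and surface GM3 quantified by antibody immunofluorescence for IC50. A parallel viability readout gives the concentration killing 50% of cells, with values over 10 indicating no cell death.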

[3] = tested on: GM3 expression on the cell surface, C32 human melanoma cells; assay: cell based phenotypic assay, cell surface GM3 by antibody mediated immunofluorescence, C32 (GM3 C32 IC50); details: Homo sapiens, C32 human melanoma cells; 50% inhibition of GM3 expression on the cell surface; read-out: GM3 C32 IC50
Method in brief: as §1

B16 mouse melanoma cells = assay: cell viability in the B16 cell-based assay (Viability, B16 IC50); details: Mus musculus, B16, B16 cells; concentration causing 50% cell death; values greater than 10 represent a lack of cell death; read-out: Viability, B16 IC50
Method in brief: (§2)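 Viability readouts were run alongside the GM3 cell-surface assay in the same B16 and C32 cultures. A figure above 10 indicates no cell death.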

C32 human melanoma cells = assay: cell viability in the C32 cell-based assay (Viability, C32 IC50); details: Homo sapiens, C32, C32 cells; concentration causing 50% cell death; values greater than 10 represent a lack of cell death; read-out: Viability, C32 IC50
Method in brief: as §2

| SMILES | IC50 [1] [nM] | IC50 [2] [nM] | IC50 [3] [nM] | IC50 (B16 mouse melanoma cells) [nM] | IC50 (C32 human melanoma cells) [nM] |
| --- | --- | --- | --- | --- | --- |
| CC1(NC(=O)C2(F)CCN(c3nccc(Oc4ccc(C#N)cc4)n3)CC2)CN2CCC1CC2 (stereo not shown) [Example 119, 1-(4-(4-Cyanophenoxy)pyrimidin-2-yl)-4-fluoro-N-(3-methylquinuclidin-3-yl)piperidine-4-carboxamide] | 6.71 | 54.4 | 0.476 | ≥ 10000 | 316 |
| CC1(NC(=O)C2(F)CCN(c3nccc(Oc4ccc(C#N)cc4)n3)CC2)CCN2CCC1CC2 (stereo not shown) [Example 120, 1-(4-(4-Cyanophenoxy)pyrimidin-2-yl)-4-fluoro-N-(4-methyl-1-azabicyclo[3.2.2]nonan-4-yl)piperidine-4-carboxamide] | 4.12 | 18.8 | 0.332 | ≥ 10000 | 316 |
| CC1(NC(=O)C2(F)CCN(c3ncc(C#N)c(Oc4ccc(F)cc4)n3)CC2)CN2CCC1CC2 (stereo not shown) [Example 122, 1-(5-Cyano-4-(4-fluorophenoxy)pyrimidin-2-yl)-4-fluoro-N-(3-methylquinuclidin-3-yl)piperidine-4-carboxamide] | 4.41 | 112 | 0.639 | ≥ 10000 | 316 |
| CC1(NC(=O)C2(F)CCN(c3nccc(OC4CCOCC4)n3)CC2)CCN2CCC1CC2 (stereo not shown) [Example 123, 4-Fluoro-N-(4-methyl-1-azabicyclo[3.2.2]nonan-4-yl)-1-(4-((tetrahydro-2H-pyran-4-yl)oxy)pyrimidin-2-yl)piperidine-4-carboxamide] | 42.3 | 226 | 2.26 | ≥ 10000 | 1000 |
| CC1(NC(=O)C2(F)CCN(c3nccc(OCc4ccc(F)cc4)n3)CC2)CCN2CCC1CC2 (stereo not shown) [Example 124, 4-Fluoro-1-(4-((4-fluorobenzyl)oxy)pyrimidin-2-yl)-N-(4-methyl-1-azabicyclo[3.2.2]nonan-4-yl)piperidine-4-carboxamide] | 0.553 | 17.8 | 0.0849 | 3420 | 100 |
| CC1(NC(=O)C2(F)CCN(c3nccc(OCc4ccc(F)cc4)n3)CC2)CN2CCC1CC2 (stereo not shown) [Example 125, 4-Fluoro-1-(4-((4-fluorobenzyl)oxy)pyrimidin-2-yl)-N-(3-methylquinuclidin-3-yl)piperidine-4-carboxamide] | 0.643 | 17.7 | 0.0509 | 4290 | 158 |
| CC1(NC(=O)C2(F)CCN(c3cncc(Oc4ccc(F)cc4)n3)CC2)CCN2CCC1CC2 (stereo not shown) [Example 126, 4-Fluoro-1-(6-(4-fluorophenoxy)pyrazin-2-yl)-N-(4-methyl-1-azabicyclo[3.2.2]nonan-4-yl)piperidine-4-carboxamide] | 1.57 | 36 | 0.726 | 6260 | 1000 |
| CC1(NC(=O)C2(F)CCN(c3cncc(Oc4ccc(F)cc4)c3)CC2)CCN2CCC1CC2 (stereo not shown) [Example 127, 4-Fluoro-1-(5-(4-fluorophenoxy)pyridin-3-yl)-N-(4-methyl-1-azabicyclo[3.2.2]nonan-4-yl)piperidine-4-carboxamide] | 2.27 | 106 | 0.569 | 6980 | 316 |
| CC1(NC(=O)C2(F)CCN(c3ncnc(OCc4ccc(F)cc4)n3)CC2)CCN2CCC1CC2 (stereo not shown) [Example 128, 4-Fluoro-1-(4-((4-fluorobenzyl)oxy)-1,3,5-triazin-2-yl)-N-(4-methyl-1-azabicyclo[3.2.2]nonan-4-yl)piperidine-4-carboxamide] | 19.8 | 654 | 3.4 | ≥ 10000 | 1000 |
| CC1(NC(=O)C2(F)CCN(c3ncc(Oc4ccc(F)cc4)cn3)CC2)CN2CCC1CC2 (stereo not shown) [Example 129, 4-Fluoro-1-(5-(4-fluorophenoxy)pyrimidin-2-yl)-N-(3-methylquinuclidin-3-yl)piperidine-4-carboxamide] | 4.27 | 97.8 | 0.38 | 8260 | 316 |
| CC1(NC(=O)C2CCN(c3ncc(Oc4ccc(F)cc4)cn3)CC2)CCN2CCC1CC2 (stereo not shown) [Example 130, 1-(5-(4-Fluorophenoxy)pyrimidin-2-yl)-N-(4-methyl-1-azabicyclo[3.2.2]nonan-4-yl)piperidine-4-carboxamide] | 0.889 | 16.9 | 0.156 | 5670 | 316 |
